Ten compounds from PubChem BioAssay (NCI) can be followed below.

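Values below derive from 48-hour exposures of cells grown in 96-well plates, with endpoints linearly interpolated between the two concentrations bracketing the appropriate inhibition level. GI50 is the concentration that inhibits growth by half. TGI: total growth inhibition.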

Common to all, as to assay: growth of human tumour cells (NCI), 48 h
Assay [1] deals with 786-0 renal.
In assay [2] the test system is HCC-2998 colon.
The subject of assay [3] is IGROV1 ovarian.
In assay [4] the test system is OVCAR-5 ovarian.
Assay [5] relates to SF-268 CNS.
For assay [6], the system named is SF-539 CNS.
Assay [7] deals with SK-MEL-28 melanoma.
For assay [8], the system named is SK-MEL-5 melanoma.
In assay [9] the test system is SR leukemia.
Assay [10] concerns EKVX NSCLC.

As for `Cn1c(=O)c(Oc2ccc(F)cc2F)cc2cnc(N[C@@H]3CCOC3)nc21`, the GI50 in assay [1], in assay [2], in assay [3], in assay [4], in assay [5] and in assay [6] was greater than 25 µM in each case. Further, the GI50 in [7], in assay [8] and in [9] was greater than 25 µM in each case. Besides, the TGI in assay [1], in assay [2], in [3], in assay [4], in assay [5] and in assay [6] was greater than 25 µM in each case. Besides, the TGI in assay [7], in [8] and in [9] was greater than 25 µM each time.
`COc1cc2ncnc(Nc3ccc(Oc4ccnc(C)c4)c(C)c3)c2cc1NC(=O)CC1CCSS1` (stereo not given): the GI50 is greater than 50 µM in [1]; 1.36 µM in assay [10]; 1.54 µM in [3]; 1.87 µM in assay [4]; 0.94 µM in [5]; 1.29 µM in assay [6]. Besides, the GI50 is 0.974 µM in assay [8] and 0.365 µM in assay [9]. Besides, the TGI in assay [1] was greater than 50 µM; in assay [10], greater than 50 µM; in assay [3] it was greater than 50 µM; in assay [4] it was greater than 50 µM; in assay [5], 2.17 µM; in assay [6], greater than 10.7 µM. Moreover, the TGI in assay [8] is 1.99 µM; in assay [9], 2.99 µM.
For the compound `Cc1ccc(-c2nc(-c3nccc4ccccc34)oc2-c2ccccc2)cc1`, the TGI in [1] is greater than 100 µM; in assay [10], 64.5 µM; in [3], greater than 100 µM; in assay [4], greater than 100 µM; in assay [5] it was greater than 100 µM; in [6], greater than 100 µM. Moreover, the TGI in assay [7], in assay [8] and in assay [9] was greater than 100 µM in each case.
For `COc1ccc(S(=O)(=O)Nc2c(/C=C\c3cc(OC)c(OC)c(OC)c3)ccc(OC)c2O)cc1`, the GI50 in assay [1] was 0.375 µM; in [2], 0.0316 µM; in [3], 0.054 µM; in assay [4], 1.02 µM; in assay [5], 0.0838 µM; in [8], 0.0363 µM. In addition, the GI50 in assay [9] was 0.0319 µM. In addition, the TGI was 28 µM in [1]; 29.9 µM in assay [2]; greater than 100 µM in assay [3]; greater than 100 µM in assay [4]; 91.6 µM in assay [5]; 0.201 µM in assay [8]. The compound further came in with a TGI in [9] of 16.2 µM.
With `O=C(Nc1cc(Cl)ccc1O)c1ccccc1Nc1ccnc(C(F)(F)F)c1`, the GI50 in assay [1] is 3.28 µM; in [10] it was 2.92 µM; in assay [2], 3 µM; in assay [4] it was 5.6 µM; in assay [5], 3.13 µM; in [6], 2.7 µM. Besides, the GI50 in assay [7] is 3 µM; in assay [8], 2.1 µM; in [9], 2.83 µM. Besides, the TGI in [1] came to 8.8 µM; in assay [10], 10.4 µM; in [2], 7.41 µM; in assay [4], 23.3 µM; in [5], 13.2 µM; in assay [6], 9.16 µM. Also, the values for the TGI in assay [7], in assay [8] and in [9] were 12.2 µM, 4.27 µM and 11.6 µM, respectively.
With `Oc1ccc(C(O)(c2ccccc2)c2ccccc2)c2ccccc12`, the TGI was determined as 6.61 µM in [1]; 26.4 µM in assay [10]; 5.62 µM in assay [3]; 5.96 µM in assay [4]; 9.63 µM in [5]; 4.62 µM in assay [6]. The figures for the TGI in assay [7], in assay [8] and in assay [9] were 29.9 µM, 14.6 µM and 7.27 µM, respectively.
`Clc1ccc2c(c1)N(C1CCCN(Cc3ccccc3)C1)c1ccccc1S2` (stereo not given): the GI50 in assay [1] is 4.44 µM; in assay [10], 4.22 µM; in assay [2] it was 5.59 µM; in [4], 14.6 µM; in [5], 3.8 µM; in assay [6], 4.61 µM. The GI50 was 7.69 µM in assay [7], 5.71 µM in assay [8] and 3.01 µM in [9]. Besides, the TGI in assay [1] was greater than 100 µM; in assay [10], 79.9 µM; in assay [2] it was 32.3 µM; in assay [4] it was greater than 100 µM; in assay [5] it was greater than 100 µM; in assay [6], 56.2 µM. Besides, the TGI in [7] is greater than 100 µM; in assay [8], 25.3 µM; in [9] it was 32.7 µM.
Consider `O=C(CC1C(=O)Nc2ccccc2S1(=O)=O)Nc1ccc(Cl)cc1` (stereo not given), for which the TGI was 38.7 µM in assay [1]; 39.6 µM in assay [2]; 37.7 µM in [3]; greater than 100 µM in assay [4]; 28.6 µM in [5]; 29.7 µM in [6]. Besides, the TGI was 74.5 µM in assay [7], 59.1 µM in [8] and 30.1 µM in [9].
For `CNC(=O)c1c(F)cccc1Nc1nc(Nc2cc3c(cc2OC)CCN3C(=O)CN(C)C)nc2[nH]ccc12`, the GI50 was 11.3 µM in assay [1]; 4.42 µM in assay [2]; 17.5 µM in [3]; 4.88 µM in assay [4]; 5.44 µM in [5]; 4.94 µM in [6]. For the same compound, the GI50 in assay [7] was 1.57 µM; in assay [8], 5.67 µM; in [9] it was 0.0203 µM. In addition, the TGI in assay [1] was 33.2 µM; in assay [2], 9.2 µM; in [3] it was 43.1 µM; in assay [4] it was 26.3 µM; in [5], 15.2 µM; in assay [6], 10.3 µM. The TGI was 2.97 µM in assay [7], 23.1 µM in assay [8] and greater than 100 µM in [9].
Regarding `COc1cc2c3c(n(CCCNCCCNCCN)c(=O)c2cc1OC)-c1cc2c(cc1C3=O)OCO2`, the GI50 was 26.2 µM in assay [1]; greater than 100 µM in assay [10]; 32.3 µM in assay [3]; greater than 100 µM in assay [5]; 37.9 µM in assay [6]; 48.5 µM in [7]. Further, the results for the GI50 in [8] and in [9] were 35.7 µM and 9.86 µM, respectively. Besides, the TGI was 82 µM in assay [1]; greater than 100 µM in [10]; greater than 100 µM in assay [3]; greater than 100 µM in assay [5]; greater than 100 µM in [6]; greater than 100 µM in assay [7]. For the same compound, the TGI is greater than 100 µM in [8] and 43.9 µM in [9].
